Series [1] can be described thus: vasopressin angina of rats (acute coronary failure induced by vasopressin). It counts as in vivo. As to conditions: for ED50: Rattus norvegicus. From the text:
Thus, such derivatives forming a more preferred group of the compounds of the formula (I), wherein R^1 is as defined above, R^2 means a methyl group, R^3 is halogen and R^4, R^5 and R^6 stand for hydrogen, show significant antianginal effects. In these derivatives, the halogen may be fluorine, chlorine or bromine. […] Thus, the above compound of the invention is about 42 times as effective as fendiline under the same conditions.
(§1) In the case of the vasopressin angina of rats [Papp and Szekeres: Arch. int. Pharmacodyn. 160, 147 (1966)], the antianginal activity measured at the 2nd minute following the intravenous administration or at the 60th minute after oral administration, respectively, as well as the intravenous and oral acute toxicity values, the therapeutic indices and the quotient of the therapeutic ratio of KHL-8430 to that of fendiline as measured in rats are summarized in Table 1.

Series [2] in a line: acute toxicity in rats (LD50, therapeutic indices). The series is classed as in vivo. Particulars: for LD50 / selectivity ratio: rat, in vivo; for LD50: acute toxicity; for selectivity ratio: LD50 and ED50 in vasopressin angina.
Description: as §1

Series [3] is described as follows: "two-step" coronary occlusion of Harris, extrasystolic activity in conscious dogs. It counts as in vivo. Particulars: for extrasystolic activity following by 24 hours the two-step coronary occlusion: conscious dogs, KHL-8430 2 mg/kg intravenous.
Series [4] can be described thus: antiarrhythmic ("antifibrillatory") action, fibrillation threshold. It counts as in vivo. As to conditions: table 2.
A short description of series [5]: vasopressin-induced angina, comparison of calcium antagonists (table 2). Particulars: for BP/Antianginal ED50 / ratio (row drawing 12; DP/dt max/antianginal by arithmetic): ratio, table 2. The series is classed as in vivo.
Series [6] can be described thus: myocardial ischaemia induced by coronary occlusion in dogs. The series is classed as in vivo. As to conditions: versus fendiline. From the text:
The myocardial ischaemia induced by coronary occlusion in dogs [Szekeres e al.: J. Pharm.

Series [7] is described as follows: haemodynamic study on dogs during coronary occlusion. The series is classed as in vivo. Particulars: in comparison with fendiline, verapamil or nifedipine.
A short description of series [8]: ventricular extrasystoles developing under the effect of a coronary occlusion. The series is classed as in vivo. As to conditions: as opposed to fendiline.
In series [9] the test system is auricular and ventricular muscle of the isolated cat heart. As to the kind of experiment: antiarrhythmic action in auricular and ventricular muscle of the isolated cat heart.
Series [10] can be described thus: haemodynamic actions (blood pressure, heart rate, left ventricle contractility). The series is classed as in vivo. As to conditions: i.v.; KHL-8430, verapamil and fendiline.
Series [11] in a line: anti-ischaemic protective action after an oral dose. It counts as in vivo.
Where [12] appears, read: iv, 2 min, i.v. at 2 minutes before inducing the angina by i.v. 2 NE/kg of vasopressin, read-out: ED50, acute coronary failure induced by vasopressin.
Where [13] appears, read: 1 h, vasopressin angina, 60th minute after oral administration, read-out: ED50, antianginal activity, oral.
Where [14] appears, read: iv, 2 min, vasopressin angina, 2nd minute following i.v. administration, read-out: ED50, antianginal activity, intravenous.
[15] abbreviates: iv, rats, i.v., read-out: LD50, intravenous.
[16] abbreviates: iv, rats, i.v., read-out: therapeutic index, intravenous (head is drawing 4).
The mark [17] stands for this setting: rats, oral, read-out: LD50, oral.
Where [18] appears, read: rats, oral, read-out: therapeutic index, oral (head is drawing 5).

Experimental findings from patent US4988730A, “Diphenkylpropylamines for the therapy of heart disease” (Chinoin Gyogyszer es Vegyeszeti Termekek Gyar RT, priority 1986, dated 1991) are described below.

One may read the ED50 as the dose that gives a 50% effect, or the effect in half of the subjects. What is called LD50 is the dose at which mortality reaches 50%.

SMILES strings stand for the structures. Where two headings read alike, the source gives them in different places.

`CC(NCCC(c1ccccc1)c1ccccc1)c1ccc(Cl)cc1.Cl` (centres unmarked) [2-(4-chlorophenyl)-6,6-diphenyl-3-azahexane hydrochloride]: the ED50 in series [1] (setting [12]) is 0.054 mg/kg. Further, in series [1] (vasopressin angina, i.v., same conditions), the “times as effective as fendiline” value is on record as “about 42 times”.
Regarding `CC(NCCC(c1ccccc1)c1ccccc1)c1ccccc1` (stereo not drawn) [Fendiline, N-(3,3-diphenylpropyl)-α-methylbenzylamine, reference compound], the ED50 in series [1] (setting [13]) is 20 mg/kg; in series [1] (setting [12]), 2.3 mg/kg; in [1] (setting [14]), 2.3 mg/kg. Besides, the figures for the LD50 in [2] (setting [15]) and in [2] (setting [17]) were 12.2 mg/kg and 800 mg/kg, respectively. Further, the selectivity ratio in [2] (setting [16]) is 5.3; in series [2] (setting [18]), 40. The “extrasystolic activity following by 24 hours the two-step coronary occlusion” value (“extrasystolic activity following” below) in [3] is on record as “no significant effect”. For the same molecule, in series [4], the “ratio (row drawing 11; BP/FFT by arithmetic)” value turned out to be 0.26. Also, in series [4], the “ratio (row drawing 13; DP/dt max/FFT by arithmetic)” value was determined as 0.175. Moreover, in series [5], the “BP/Antianginal ED50” value worked out at 0.62. Also, the “ratio (row drawing 12; DP/dt max/antianginal by arithmetic)” value in series [5] stood at 0.41.
In the case of `COc1ccc(CCN(C)CCCC(C#N)(c2ccc(OC)c(OC)c2)C(C)C)cc1OC` (centres unmarked) [verapamil], in series [3], the “extrasystolic activity following” value is listed as “no significant effect”. Also, in series [4], the “ratio (row drawing 11; BP/FFT by arithmetic)” value worked out at 0.13 and the “ratio (row drawing 13; DP/dt max/FFT by arithmetic)” value came to 0.04. The ED50 in series [5] (iv, read-out: ED50, Vasopressin-induced angina) came out at 0.1 mg/kg. Besides, in series [5], the “BP/Antianginal ED50” value is 2.0 and the “ratio (row drawing 12; DP/dt max/antianginal by arithmetic)” value is reported as 0.7.
Turning to `COc1ccc(C(C)NCCC(c2ccccc2)c2ccccc2)cc1OC.Cl` (centres unmarked) [KHL-8430, 2-(3,4-Dimethoxyphenyl)-6,6-diphenyl-3-azahexane hydrochloride], the ED50 in series [1] (setting [13]) was found to be 8.4 mg/kg. Moreover, in series [1] (setting [14]), the 50% effective dose (ED50) came out at 0.34 mg/kg. Moreover, the “strength and duration of the effect on the angina induced by vasopressin” value in [1] (versus fendiline) is “highly exceed that of fendiline”. Besides, the LD50 in series [2] (setting [15]) is 16 mg/kg. The selectivity ratio in series [2] (setting [16]) is 47.1. In addition, the LD50 in [2] (setting [17]) was 1400 mg/kg. Moreover, the selectivity ratio in series [2] (setting [18]) came to 167. Also, in series [2] (rats, i.v., therapeutic ratio of KHL-8430 to that of fendiline), the “Quotient of the therapeutic ratios, intravenous” value is 8.89. The “Quotient of the therapeutic ratios, oral” value in series [2] (rats, oral, therapeutic ratio of KHL-8430 to that of fendiline) came out at 4.17. For the same molecule, in series [2] (versus fendiline), the “toxicity on intravenous and oral administrations” value is recorded as “less toxic than the reference compound”. Further, the “decrease of myocardial ischaemia induced by coronary occlusion” value in [6] (intravenous or oral) was “decreased more strongly and with a much longer duration”. Moreover, the “strength and duration of the effect on the ischaemic state induced by coronary occlusion” value in series [6] is recorded as “highly exceed that of fendiline”. In series [7], the “arterial blood pressure during coronary occlusion” value is on record as “only a little lowered”, the “heart rate during coronary occlusion” value was “not decreased” and the “prolongation of the activation time in the ischaemic area” value is recorded as “significantly restrained”. Also, the “restraint of ventricular extrasystoles under coronary occlusion” value in [8] was “surprisingly capable to restrain the ventricular extrasystoles”. In addition, in series [9] (compared with mexiletine), the “antiarrhythmic action, auricular and ventricular muscle of the isolated cat heart” value is listed as “high antiarrhythmic action, which equals the effect of mexiletine”. The “antiarrhythmic action relative to fendiline, verapamil and other calcium antagonists” value in [9] (isolated cat heart) was “by far surpassing that of fendiline, verapamil and other calcium antagonists”. Besides, in [3], the “extrasystolic activity following” value is reported as “significantly lowered”. Besides, in series [3] (dog, in vivo), the “rhythm disturbances of the heart” value is given as “in a great part of the cases, the rhythm disturbances of the heart could be suspended”. In series [3] (oral administration), the “frequency of the extrasystoles, oral administration” value is “diminished in a dose-dependent manner and very significantly”. Further, in [10], the haemodynamical therapeutic index result is reported as “by far the best among the three calcium antagonists studied”. In series [4], the “ratio (row drawing 11; BP/FFT by arithmetic)” value is on record as 1.25 and the “ratio (row drawing 13; DP/dt max/FFT by arithmetic)” value came out at 3.33. Moreover, in [5], the “BP/Antianginal ED50” value is 3.75 and the “ratio (row drawing 12; DP/dt max/antianginal by arithmetic)” value is 10.00. Besides, in series [11], the “anti-ischaemic protective action after an oral dose” value is listed as “very smooth”.
